PMC8066331, “Anticancer Activity of Triazolo-Thiadiazole Derivatives and Inhibition of AKT1 and AKT2 Activation” (Pharmaceutics, 2021)

What was measured:
[1] = test system: SKOV-3; assay: MTT in vitro antiproliferative assay, SKOV-3; type: cell-based; details: Homo sapiens, SK-OV-3, SKOV-3, MTT; for IC50: 48 h, concentration causing 50% cell death, read-out: IC50; for GI50 / IC (TGI): 48 h drug exposure; for GI50: read-out: GI50; for IC (TGI): read-out: TGI
From the text: (§1) The in vitro antiproliferative activities of the novel triazolo[3,4-b]thiadiazole derivatives were estimated in ten well-established human cancer cell lines including three ovarian (SKOV-3, UWB 1.289, and UWB 1.289+BRCA1), five colorectal adenocarcinoma (DLD-1, HT-29, LS174T, LoVo, and SW403), and two prostate cancer cell lines (PC-3 and DU-145). All cancer cell lines were obtained from the American Type Culture Collection (ATCC) and cultivated in different culture media according to the instructions. The required growth mediums were supplemented with 10% fetal bovine serum and 1% streptomycin/penicillin. All cancer cell lines were cultured as monolayers and maintained at 37 °C, 5% CO2 in humidified air.
(§2) Stock solutions of all tested compounds were prepared by dissolving the required amount of substances in the DMSO solvent to reach the desired concentration of 15 mM.
(§3) To evaluate the in vitro antiproliferative activity of the triazolo[3,4-b]thiadiazole derivatives, 3-(4,5-dimethylthiazol-2-yl)-2,5-diphenyltetrazolium bromide (MTT) assay was assessed. According to the protocol, cells were firstly seeded into a 96-well plate at a density of 8 × 10^3 cells and grown for 24 h at 37 °C, 5% CO2 in humidified air. Subsequently, cells were treated with the tested compounds in a specific range of drug concentrations (1–100 μΜ). Following 48 h of drug exposure, the culture media were discarded and replaced with 100 μL of fresh medium. Afterwards, 50 μL of dissolved MTT in phosphate-buffered saline (PBS) solution (5 mg/mL) were added in each well and cells were incubated for 3 h at 37 °C, 5% CO2 in humidified air. Incubation time was followed by MTT discard and the addition of 100 μL of DMSO solvent so that the formazan crystals could be dissolved. The absorbance of the converted dye was immediately measured at a wavelength of 540 nm on an ELISA reader (VersaMax Microplate Reader, Orleans, CA, USA).
(§4) The in vitro anticancer effect of a tested compound on cell viability was determined by three dose–response parameters termed GI50, TGI, and IC50. More specifically, the GI50 value indicates the required concentration of the compound that impels 50% cell growth inhibition, the TGI value corresponds to the concentration that induces 100% cell growth inhibition, and the IC50 value is the concentration that causes 50% cell death. The two parameters GI50 and TGI represent the cytostatic activity, whereas IC50 reflects the cytotoxic effect of a drug. To estimate the three parameters, nine absorbance measurements were required including control 24 h (Ct24), control 72 h (Ct72), and the mean of cell survival in all seven drug concentrations (Tt72). The percentage growth inhibition was calculated according to National Cancer Institute’s (NCI) protocol: [(Tt72x) − (Ct24)/(Ct72) − (Ct24)] × 100 for concentrations for which Tt72x > Ct24 and [(Tt72x) − (Ct24)/Ct24] × 100 for concentrations for which Tt72x < Ct24. GI50 was calculated from [(Tt72x) − (Ct24)/(Ct72) − (Ct24)] × 100 = 50, TGI was calculated from [(Tt72x) − (Ct24)/(Ct72) − (Ct24)] × 100 = 0, and IC50 was calculated from [(Tt72x) − (Ct24)/Ct24] × 100 = 50. All the experiments were carried out in triplicate.

[2] = test system: UWB 1.289; assay: MTT in vitro antiproliferative assay, UWB 1.289; type: cell-based, human; details: UWB 1.289, MTT; for IC50 / GI50: Homo sapiens, UWB1289; for IC50: 48 h, 50% cell death; for GI50 / TGI: 48 h drug exposure
From the text: as §1, §2, §3, §4

[3] = test system: LoVo; assay: MTT in vitro antiproliferative assay, LoVo; type: cell-based, human; details: for TGI / GI50: 48 h drug exposure; for IC50 / GI50: Homo sapiens; for IC50: 48 h, 50% cell death
From the text: as §1, §2, §3, §4

[4] = test system: PC-3; assay: MTT in vitro antiproliferative assay, PC-3; type: cell-based; details: Homo sapiens, PC-3, MTT; for IC50: 48 h, 50% cell death, read-out: IC50; for GI50 / IC (TGI): 48 h drug exposure; for GI50: read-out: GI50; for IC (TGI): read-out: TGI
From the text: as §1, §2, §3, §4

[5] = In vivo acute toxicity; details: both sexes, mouse, in vivo, ip; CB17 SCID mice, single i.p. injection, 30 days observation, estimated graphically
Method: (§5) CB17 severe combined immunodeficient (SCID) male and female mice were used for toxicity and antitumor activity studies. Mice were obtained from National Center for Scientific Research (NCSR) Demokritos, Institute of Biology, Athens, Greece. CB17 SCID mice were fed water and an irradiated standard rodent diet ad libitum and housed under specific pathogen-free conditions. For ethical reasons, the weight and tumor volumes of the animals were measured twice a week during the experiment. In case of cachexia, suffering, or increase in the tumor volume up to 2000 mm^3, the animals were sacrificed by cervical disruption.
(§6) For intraperitoneal (i.p.) treatment, stock solutions of the 3 tested compounds were prepared immediately before use. They were suspended in corn oil in the desired concentrations following initial dissolution in 10% dimethyl sulfoxide (DMSO). […] Briefly, the acute toxicity of the tested compounds was assessed for lethality in CB17 SCID mice and determined as previously described. […] Each dosage comprised a group of ten mice, including males and females, that received single i.p. injections.

[6] = test system: CB17 SCID mice; assay: In vivo acute toxicity; details: single i.p. injection, 30 days observation, estimated graphically
Method: as §5, §6

COc1cc(Cc2nnc3sc(C=Cc4ccc(Cl)cc4)nn23)c(S(=O)(=O)N(C)C)cc1OC [KA26]
IC50 [1]: > 100 µM
GI50 [1]: 20 ± 0.5 µM
IC (TGI) [1]: > 100 µM
IC50 [2]: 70 ± 1.4 µM
GI50 [2]: 29 ± 0.7 µM
TGI [2]: 53 ± 1 μΜ
TGI [3]: >100 μΜ
IC50 [3]: > 100 µM
GI50 [3]: 15 ± 0.8 µM
IC50 [4]: > 100 µM
GI50 [4]: 42.5 ± 1.5 µM
IC (TGI) [4]: > 100 µM
LD50 at 30 days [5]: 160 mg/kg
LD10 [6]: 100 mg/kg

COc1cc(Cc2nnc3sc(-c4cc([N+](=O)[O-])ccc4[N+](=O)[O-])nn23)c(S(=O)(=O)N(C)C)cc1OC [KA39]
IC50 [1]: 25 ± 1.4 µM
GI50 [1]: 7 ± 0.2 µM
IC (TGI) [1]: 12 ± 0.8 µM
IC50 [2]: 22 ± 1.2 µM
GI50 [2]: 6 ± 0.2 µM
TGI [2]: 10 ± 0.8 μΜ
TGI [3]: 5.5 ± 0.1 μΜ
IC50 [3]: 10.5 ± 0.15 µM
GI50 [3]: 2.2 ± 0.2 µM
IC50 [4]: 12 ± 0.1 µM
GI50 [4]: 5 ± 0.15 µM
IC (TGI) [4]: 8 ± 0.1 µM
LD50 at 30 days [5]: 100 mg/kg
LD10 [6]: 70 mg/kg

COc1cc(Cc2nnc3sc(C=Cc4ccc(F)cc4)nn23)c(S(=O)(=O)N(C)C)cc1OC [KA25]
IC50 [1]: 85 ± 2.1 µM
GI50 [1]: 15 ± 0.5 µM
IC (TGI) [1]: 50 ± 1.5 µM
IC50 [2]: 62 ± 1.2 µM
GI50 [2]: 2 ± 0.5 µM
TGI [2]: 5 ± 0.7 μΜ
TGI [3]: 13.8 ± 0.52 μΜ
IC50 [3]: > 100 µM
GI50 [3]: 8 ± 0.76 µM
IC50 [4]: > 100 µM
GI50 [4]: 14 ± 1 µM
IC (TGI) [4]: 22 ± 0.8 µM
LD50 at 30 days [5]: 360 mg/kg
LD10 [6]: 200 mg/kg
